Results as given in US7511119B2, “PRAME peptide analogues” (MannKind Corporation, priority 2005, dated 2009).
Square brackets hold non-standard residues; d marks the D form. Ends that are not written are not given here. Peptide text beside a SMILES is read from it. Phe(4-NO2) = N[C@@H](Cc1ccc([N+](=O)[O-])cc1)C(=O)O; Phg = N[C@H](C(=O)O)c1ccccc1; Nva = CCC[C@H](N)C(=O)O

How the values were obtained:
HLA-A*0201 = HLA-A*0201 (Homo sapiens, UniProt P04439, D140Y/D185E/D98H/E176V/E277Q/G131W/G231S/I119V/I121R/I166T/I218V/L300P/L318F/N151K/N90K/P208A/P217A/Q86G/Q94H/R138H/R169H/T345S); assay: Peptide binding using T2 cells; settings: half maximal binding of wild-type peptide relative to analog;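 also: Read-out is peptide-induced stabilization of HLA-A*0201 on the cell surface, reflecting mainly Kon at limiting peptide levels and both Kon and Koff at saturating levels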
Text: Thus, at limiting concentrations of peptide, it is a measurement of Kon mostly and at saturation levels of peptide it is a measurement of both Kon and Koff.
Thus, at limiting concentrations of peptide, this is a measurement of Kon mostly and at saturation levels of peptide that is a measurement of both Kon and Koff.

[1] = tested on: T cell lines against natural epitope SSX-241-49; assay: Cross-reactivity and functional avidity: IFN-gamma production by T cell lines raised against natural SSX-2 41-49; type: cell-based, HHD transgenic mice; settings: T cells raised to native peptide tested on analogs; footnote * and unit not given;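 also: analogs presented ex vivo by competent APCs to T cells specific for the non-mutated epitope, scored by lowest activating concentration, peak cytokine effect and concentration at that peak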

Row | Compound | Relative affinity (1/RA) (HLA-A*0201) | Cross-reactivity and fct avidity (native to analogs)* [1]
1 | CCC[C@H](NC(=O)[C@H](CO)NC(=O)[C@@H](NC(=O)[C@@H](N)Cc1ccccc1)C(C)C)C(=O)N[C@@H](CCCCN)C(=O)N[C@H](C(=O)N[C@@H](Cc1ccccc1)C(=O)N[C@@H](Cc1ccc(O)cc1)C(=O)N[C@H](C(=O)O)C(C)C)[C@@H](C)CC [SSX2 41-49 (K41F, A42V, E44Nva), FVS(Nva)KIFYV] (H-FVS[Nva]KIFYV-OH) | 3.9 | 3
2 | FVSEKIFYV [SSX2 41-49 (K41F, A42V)] | 3.1 | 0.1
3 | FVSEKLFTV [SSX2 41-49 (K41F, A42V, I46L, Y48T)] | 2.6 | >10
4 | CC[C@H](C)[C@H](NC(=O)[C@H](CCCCN)NC(=O)[C@H](CCC(=O)O)NC(=O)[C@H](CO)NC(=O)[C@H](C)NC(=O)[C@@H](N)c1ccccc1)C(=O)N[C@@H](Cc1ccccc1)C(=O)N[C@@H](Cc1ccc(O)cc1)C(=O)N[C@H](C(=O)O)C(C)C [SSX2 41-49 (K41(Phg))] (H-[Phg]ASEKIFYV-OH) | 2.5 | 0.1
5 | FISEKIFYV [SSX2 41-49 (K41F, A42I)] | 2.7 | 0.3
6 | FVSEKLFYV [SSX2 41-49 (K41F, A42V, I46L)] | 1.9 | 3
7 | CC[C@H](C)[C@H](NC(=O)[C@H](CCCCN)NC(=O)[C@H](CCC(=O)O)NC(=O)[C@H](CO)NC(=O)[C@H](C)NC(=O)[C@@H](N)Cc1ccc([N+](=O)[O-])cc1)C(=O)N[C@@H](Cc1ccccc1)C(=O)N[C@@H](Cc1ccc(O)cc1)C(=O)N[C@H](C(=O)O)C(C)C [SSX2 41-49 (K41(Phe-4NO2))] (H-[Phe(4-NO2)]ASEKIFYV-OH) | 1.1 | 3
8 | FVSDKIFYV [SSX2 41-49 (K41F, A42V, E44D)] | 1.1 | >10

Further lines, with some results ahead:

Row | Relative affinity (1/RA) (HLA-A*0201) | Compound | Cross-reactivity and fct avidity (native to analogs)* [1]
9 | 1.2 | YLSEKIFYV-OH [SSX2 41-49 (K41Y, A42L)] | –
10 | 2.5 | CC[C@H](C)[C@H](NC(=O)[C@H](CCCCN)NC(=O)[C@H](CCC(=O)O)NC(=O)[C@H](CO)NC(=O)[C@@H](NC(=O)[C@@H](N)Cc1ccccc1)C(C)C)C(=O)N[C@@H](Cc1ccccc1)C(=O)N[C@H](C(=O)N[C@H](C(=O)O)C(C)C)c1ccccc1 [SSX2 41-49 (K41F, A42V, Y48Phg), FVSEKIF(Phg)V] (H-FVSEKIF[Phg]V-OH) | >10
11 | 3.3 | WLSEKIFYV-OH [SSX2 41-49 (K41W, A42L)] | 0.3
12 | 0.8 | FVSEKIFYM [SSX2 41-49 (K41F, A42V, V49M)] | >10
13 | 3.0 | WVSEKIFYV-OH [SSX2 41-49 (K41W, A42V)] | 1
14 | 1.0 | KASEKIFYI-OH [SSX2 41-49(V49I)] | 10
15 | 1.7 | CC[C@H](C)[C@H](NC(=O)[C@H](CCCCN)NC(=O)[C@H](CCC(=O)O)NC(=O)[C@H](CO)NC(=O)[C@@H](NC(=O)[C@@H](N)Cc1ccccc1)C(C)C)C(=O)N[C@@H](Cc1ccccc1)C(=O)N[C@@H](Cc1ccccc1)C(=O)N[C@H](C(=O)O)C(C)C [SSX2 41-49 (K41F, A42V, Y48F)] | 10
16 | 2.4 | CCC[C@H](NC(=O)[C@H](CCCCN)NC(=O)[C@H](CCC(=O)O)NC(=O)[C@H](CO)NC(=O)[C@@H](NC(=O)[C@@H](N)Cc1ccccc1)C(C)C)C(=O)N[C@@H](Cc1ccccc1)C(=O)N[C@@H](Cc1ccc(O)cc1)C(=O)N[C@H](C(=O)O)C(C)C [SSX2 41-49 (K41F, A42V, I46Nva), FVSEK(Nva)FYV] (H-FVSEK[Nva]FYV-OH) | 1
